Source: patent publication US20230201236A1, “SPIROCYCLIC NUCLEOSIDE ANALOGUES FOR THE TREATMENT OF HEPATITIS E” (priority 2020, published 2023)

Key:
Type in all cases: cell-based
[1] = test system: rat HEV replicon LA-B350/luc; assay: Antiviral activity against rat HEV replicon LA-B350/luc in Huh7 cells (Gaussia luciferase); conditions: Huh-7, 72 h, luminescence after 3 days, two or three experiments
Method: The antiviral activity of compounds was tested against the rat HEV replicon LA-B350/luc as described in Debing et al (Dis Model Mech 2016; 9:1203-10). To this end, Huh7 cells were electroporated with capped viral RNA produced from plasmid pLA-B350/luc, plated in 96-well plates and treated with each of compounds at selected concentrations. For virus control (VC), compound was omitted. After 3 days, luminescence produced by the secreted Gaussia luciferase was quantified using the Promega Renilla luciferase kit and corrected for background with a cell control (CC, viral RNA and compound omitted). The 50% effective concentration (EC50) is defined as the concentration of compound that causes a 50% reduction in the Luc signal compared to that of average corrected VC. The EC50 was based on two or three experiments and derived by a nonlinear regression fit in GraphPad using a two-parameter logistic model while keeping the slope variable.

[2] = Viability evaluation (MTS/PMS) of Huh7 cells transfected with the rat HEV replicon; conditions: human, highest tested concentration 50 μM
Method: (§1) For viability evaluation, medium was removed and cells were subsequently incubated with MTS/PMS solution (3-(4,5-dimethylthiazol-2-yl)-5-(3-carboxymethoxyphenyl)-2-(4-sulfophenyl)-2H-tetrazolium/phenazinemethosulfate), which is metabolized to produce a brown, water-soluble product that is quantified after 1 h at 37° C. by absorbance read-out at 498 nm. Obtained values are expressed as percent inhibition of untreated RNA-transfected control condition. The CC50 represents the concentration at which the metabolic activity of the cells would be reduced to 50% of the metabolic activity of untreated cells (and was based on two experiments and derived by a nonlinear regression fit in GraphPad using a two-parameter logistic model while keeping the slope variable).

[3] = test system: HEV Genotype 3 replicon Kernow-C1 p6/luc; assay: Antiviral activity against HEV Genotype 3 replicon Kernow-C1 p6/luc in Huh7 cells (Gaussia luciferase); conditions: Huh-7, 96 h, luminescence after 4 days, 4PL fit, two experiments, read-out: relative EC50
Method: The antiviral activity of compounds was tested against the HEV Genotype 3 replicon Kernow-C1 p6/luc (Kernow-C1 p6: GenBank accession number JQ679013) as previously described (Debing Y, Emerson S U, Wang Y, Pan Q, Balzarini J, Dallmeier K, Neyts J. 2013. Ribavirin Inhibits In Vitro Hepatitis E Virus Replication through Depletion of Cellular GTP Pools and Is Moderately Synergistic with Alpha Interferon. Antimicrob Agents Chemother, 58:267-273). To this end, Huh7 cells were electroporated with capped in vitro transcribed Kernow-C1 p6/luc-RNA produced from Mlul-digested plasmid DNA (Shukla P, Nguyen H T, Faulk K, Mather K, Torian U, Engle R E, Emerson SU. 2012. Adaptation of a genotype 3 hepatitis E virus to efficient growth in cell culture depends on an inserted human gene segment acquired by recombination. J. Virol. 86:5697-5707), seeded in 96-well plates containing serial dilutions of the test compounds. For virus control (VC) compound was omitted. After 4 days, luminescence produced by the secreted Gaussia luciferase was quantified using the Promega Renilla luciferase kit and corrected for background with a cell control (CC, viral RNA and compound omitted). The relative 50% effective concentration (EC50) is defined as the concentration of compound that causes a 50% reduction in the Luc signal, relative to the signal range. The relative EC50 was based on two experiments and derived by a nonlinear regression fit in GraphPad using a four-parameter logistic (4PL) model.

[4] = Viability evaluation (MTS/PMS) of Huh7 cells transfected with Kernow-C1 p6/luc RNA; conditions: human, highest tested concentration 50 μM, read-out: relative CC50
Method: as §1, with “percentage” for “percent inhibition”, “The relative” for “The”, “and” for “(and”, “two or three” for “two”, “four-parameter” for “two-parameter”, “(4PL) model.” for “model while keeping the slope variable).”

| Compound | EC50 [1] [µM] | CC50 [2] [µM] | EC50 [3] [µM] | CC50 [4] [µM] |
| --- | --- | --- | --- | --- |
| CC(C)OC(=O)C(C)NP(=O)(OC[C@@]1(N=[N+]=[N-])O[C@@H](n2ccc(=O)[nH]c2=O)[C@@]2(CCS2)[C@@H]1O)Oc1ccccc1 (stereo in doubt) [Compound 1, isopropyl (2R)-2-[[[(4R,5R,6R,8R)-6-azido-8-(2,4-dioxopyrimidin-1-yl)-5-hydroxy-7-oxa-1-thiaspiro[3.4]octan-6-yl]methoxy-phenoxy-phosphoryl]amino]propanoate] | 0.74 | > 50 | > 50 | > 50 |
| CC(C)OC(=O)[C@H](C)NP(=O)(OC[C@@]1(F)O[C@@H](n2ccc(=O)[nH]c2=O)[C@@]2(CCS2)[C@@H]1O)Oc1ccccc1 (stereo partly drawn) [Compound 2, (2S)-isopropyl 2-(((((4R,5R,7S,8R)-5-(2,4-dioxo-3,4-dihydropyrimidin-1(2H)-yl)-7-fluoro-8-hydroxy-6-oxa-1-thiaspiro[3.4]octan-7-yl)methoxy)(phenoxy)phosphoryl)-amino)propanoate] | 5.9 | > 50 | – | > 50 |
| CC(C)OC(=O)[C@H](C)NP(=O)(OC[C@H]1O[C@@H](n2ccc(=O)[nH]c2=O)[C@@]2(CCS2)[C@@H]1O)Oc1ccccc1 (stereo partly drawn) [Compound 3, (2S)-isopropyl 2-(((((4R,5R,7R,8R)-5-(2,4-dioxo-3,4-dihydropyrimidin-1(2H)-yl)-8-hydroxy-6-oxa-1-thiaspiro[3.4]octan-7-yl)methoxy)(phenoxy)phosphoryl)amino)propanoate] | 27 | > 50 | > 50 | > 50 |
| COC(=O)C(C)(C)NP(=O)(OC[C@H]1O[C@@H](n2ccc(=O)[nH]c2=O)[C@@]2(CCO2)[C@@H]1O)Oc1ccccc1 (stereo partly drawn) [Compound 4, methyl 2-[[[(4R,5R,7R,8R)-5-(2,4-dioxo-3,4-dihydropyrimidin-1(2H)-yl)-8-hydroxy-1,6-dioxaspiro[3.4]octan-7-yl]methoxy](phenoxy)phosphorylamino]-2-methylpropanoate] | 0.36 | > 50 | 0.53 | > 50 |
